What was measured:
[1] = test system: tonic currents in dentate gyrus granule cells; conditions: rat slice recordings, cited from earlier work
[2] = molecular target: T1, human BGT1 (Homo sapiens, UniProt P48065); assay: Fluorescence interference control: BGT1-mediated GABA uptake in the FMP assay; format: cell-based; conditions: 110 μM GABA uptake by BGT1 in δ-HEK cells; 2027 at 30, 10, 3 μM
T1 construct: expressed in transfected cells; host or cells: δ-HEK cells, transient transfection (pcDNA5/FRT)
T1 sequence (P48065 1-614): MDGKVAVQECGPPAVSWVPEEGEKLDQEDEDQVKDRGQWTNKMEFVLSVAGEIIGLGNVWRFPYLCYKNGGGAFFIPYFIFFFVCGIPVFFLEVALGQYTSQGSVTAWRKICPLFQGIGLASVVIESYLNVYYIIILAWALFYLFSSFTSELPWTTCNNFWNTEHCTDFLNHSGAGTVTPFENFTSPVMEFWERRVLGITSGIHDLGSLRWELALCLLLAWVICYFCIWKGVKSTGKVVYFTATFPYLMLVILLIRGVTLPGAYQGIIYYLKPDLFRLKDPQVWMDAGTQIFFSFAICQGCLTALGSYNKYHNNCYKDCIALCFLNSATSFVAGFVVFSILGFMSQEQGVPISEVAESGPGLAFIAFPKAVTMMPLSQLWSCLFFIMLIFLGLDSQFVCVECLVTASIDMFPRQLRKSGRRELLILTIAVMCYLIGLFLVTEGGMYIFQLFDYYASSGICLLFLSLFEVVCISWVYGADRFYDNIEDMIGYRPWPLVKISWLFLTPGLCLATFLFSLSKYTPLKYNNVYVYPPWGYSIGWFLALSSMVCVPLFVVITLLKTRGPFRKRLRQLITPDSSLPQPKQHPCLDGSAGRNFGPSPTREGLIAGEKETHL
Excerpt: (§1) To express recombinant GABAΑ receptors human α1, α2, α3, α5, α6, β2, γ2 (pcDNA3.1/Zeo) and α4, β1 (pUNIV)[26] subunit cDNA were transiently transfected into either δ-HEK or HEK background cells. δ-HEK cells were transfected with α- and β-subunits in a 1:1 ration whereas HEK background cells were transfected with α-, β- and γ-subunits in a 1:1:2 ratio. Human BGT1 (pcDNA5/FRT)[43] was transiently transfected into the δ-HEK cell line. δ-HEK cells transfected for whole-cell patch-clamp recordings were co-transfected with green fluorescent protein (GFP) as well as α- and β-subunits in a 0.5:1:1 ratio (0.8 μg + 1.6 μg + 1.6 μg in a 6 cm dish) in order to identify transfected cells. The transfection was carried out using Polyfect as transfection reagent according to the manufactures protocol expect for using half the recommended volume of Polyfect.
assay (perf ormed essentially as previously described in methods section and based on Al-Khawaja et al.).
in d-HEK cells was not decreased/quenched by 2027 in any of the tested concentrations. Data are shown as
means ± SD f rom a representative expe riment perf orme d in triplicate (n=2).
BGT1 expressed in HEK-δ cells

[3] = molecular target: T2, human α4β1δ GABAΑ receptor (Homo sapiens, UniProt P18505+P48169); assay: FMP assay at α4β1δ GABAA receptors in HEK cells (screening, concentration-inhibition, Schild analysis); format: cell-based; conditions: HEK293, read-out: inhibition of the GABA EC80 signal, primary screening, 10 μM, singlicates
T2 construct: expressed in transfected cells; host or cells: δ-HEK (HEK293 Flp-In stably expressing human δ), transiently transfected with α4 and β1 1:1
T2 sequence (P48169 36-554): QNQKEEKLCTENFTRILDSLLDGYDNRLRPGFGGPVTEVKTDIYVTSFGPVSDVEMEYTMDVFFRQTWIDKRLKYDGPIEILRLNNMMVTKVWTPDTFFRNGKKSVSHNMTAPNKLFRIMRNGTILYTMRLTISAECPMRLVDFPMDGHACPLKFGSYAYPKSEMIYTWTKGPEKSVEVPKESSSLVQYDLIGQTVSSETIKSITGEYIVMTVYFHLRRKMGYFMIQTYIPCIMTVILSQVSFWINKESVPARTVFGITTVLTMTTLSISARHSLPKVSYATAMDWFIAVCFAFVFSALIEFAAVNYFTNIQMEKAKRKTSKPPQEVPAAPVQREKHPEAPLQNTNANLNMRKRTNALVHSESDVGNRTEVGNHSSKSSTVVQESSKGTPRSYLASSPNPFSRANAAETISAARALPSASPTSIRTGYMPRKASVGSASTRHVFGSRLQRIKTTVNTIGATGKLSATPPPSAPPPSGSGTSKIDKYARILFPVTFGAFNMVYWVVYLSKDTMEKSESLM
T2 sequence (P18505 26-474): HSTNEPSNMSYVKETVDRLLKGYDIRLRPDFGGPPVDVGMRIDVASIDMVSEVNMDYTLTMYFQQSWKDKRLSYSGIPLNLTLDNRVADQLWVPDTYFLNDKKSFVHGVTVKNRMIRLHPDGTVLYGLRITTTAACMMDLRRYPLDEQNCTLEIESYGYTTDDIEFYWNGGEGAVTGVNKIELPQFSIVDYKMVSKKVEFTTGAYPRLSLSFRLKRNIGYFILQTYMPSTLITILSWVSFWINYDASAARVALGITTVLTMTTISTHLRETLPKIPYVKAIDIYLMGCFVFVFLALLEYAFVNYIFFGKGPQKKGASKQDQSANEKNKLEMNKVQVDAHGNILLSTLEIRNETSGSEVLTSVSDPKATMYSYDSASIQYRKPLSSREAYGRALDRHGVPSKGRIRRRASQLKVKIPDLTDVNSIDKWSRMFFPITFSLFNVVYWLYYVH
T2 sequence (O14764 25-452 partner): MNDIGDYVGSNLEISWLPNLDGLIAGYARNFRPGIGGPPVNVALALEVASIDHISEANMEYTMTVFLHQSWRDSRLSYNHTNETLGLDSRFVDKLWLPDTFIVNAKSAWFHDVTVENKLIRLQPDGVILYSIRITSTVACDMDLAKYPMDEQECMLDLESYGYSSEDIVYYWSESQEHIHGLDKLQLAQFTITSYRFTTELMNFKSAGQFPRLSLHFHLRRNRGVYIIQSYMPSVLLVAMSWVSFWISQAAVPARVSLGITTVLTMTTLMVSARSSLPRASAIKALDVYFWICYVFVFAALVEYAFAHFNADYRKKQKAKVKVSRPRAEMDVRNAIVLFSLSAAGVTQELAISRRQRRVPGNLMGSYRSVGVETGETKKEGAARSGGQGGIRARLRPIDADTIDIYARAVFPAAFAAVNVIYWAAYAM
Excerpt: We have previously established a FLIPR membrane potential (FMP) assay to study recombinant δ-containing GABAΑRs entailing a HEK293 Flp-In cell line stably expressing the human δ-subunit which is suitable for co-transfection with any desired α/β subunits. Initially, we validated the applicability of the FMP assay for efficient compound screening in 96-well microtiter plates using the human α4β1δ GABAΑR heterologously expressed in HEK cells. This receptor was chosen as we have previously shown this system to be reliable in expressing δ-containing receptors. To this end, we determined the Z′-factor, which is a statistical factor used to measure the suitability of an assay for high throughput screening.
Thus, we went on to further characterize 2027 by making a full concentration-inhibition curve.
HEK293 cells were maintained in DMEM containing GlutaMAX-I, supplemented with 10% FBS and 1% penicillin-streptomycin and incubated at 37 °C and a humidity of 5% CO2. For expression of δ-containing GABAΑ receptors, a HEK293 Flp-In^ΤΜ cell line stably expressing the human GABAΑ δ-subunits (referred to as δ-HEK) was used and the γ-containing subtypes was expressed in a background HEK293 Flp-In^ΤΜ cell line stably expressing the G-protein coupled peptide receptor NPBWR2 (referred to as HEK background)[26], both positively selected for using 200 μg/mL hygromycin B. α1β2γ2 receptors were stably expressed in a HEK293 cell line maintained as above but with no selection (gift from Marianne L. Jensen, Neurosearch).
as §1
The FMP assay was performed as previously described with a few modifications. Briefly, HEK cells were transfected as described[26] and 16–20 hours later plated (50,000 cells/well in DMEM medium) into clear-bottomed black 96-well plates coated with poly-D-lysine and the assay performed 20–28 hours later. The assay protocol including the FMP blue dye incorporation into membranes was exactly as described in Falk-Petersen et al.[26]. […] Data was obtained as changes in fluorescence units (∆RFU) by measuring emission at 560 nm caused by excitation at 530 nm. Unless otherwise mentioned in the text or figure legends experiments were performed in at least three independent experiments each using three technical replicates.
Data obtained in the FMP assay are given as relative changes in fluorescence units (ΔRFU) by subtracting the average of the baseline fluorescence signal from the peak fluorescence signal after compound addition. All raw traces were inspected manually and peak signals resulting from compound/buffer addition together with signal artefacts were omitted from the analysis.
The concentration-response curves obtained in the FMP assay for both agonists (determining EC50 values) and antagonists (determining IC50 values) were fitted using the four-parameter concentration-response model: Response=bottom+top−bottom/1+10^[(logEC50-A)⋅nH] EC/IC50 values describe the concentration resulting in the half-maximal response (halfway between top and bottom), and nΗ is the Hill coefficient.

Oc1noc(C2CCNCC2)c1CCC(c1ccccc1)c1ccccc1 [DPP-4-PIOL]
IC50 ([1]; read-out: IC50 inhibiting tonic currents): 0.87 nM | potency in inhibiting tonic over phasic currents [1]: approximately 20 times

COc1ccc(-c2ccc(=N)n(CCCC(=O)O)n2)cc1 [Gabazine, reference compound]
interference with / quenching of the fluorescence signal [2]: do not interfere

COc1ccccc1NC(=O)C1CCN(Cc2ccco2)CC1 [compound 2100, 1-(furan-2-ylmethyl)-N-(2-methoxyphenyl)piperidine-4-carboxamide]
inhibition at 10 µM [3]: > 50%

— article PMC7308271, “Discovery of a new class of orthosteric antagonists with nanomolar potency at extrasynaptic GABAA receptors” (Scientific Reports, 2020)
